Assays:
BCL-XL = biological target: T1, BCL-XL (Homo sapiens, UniProt Q07817); test: Protein-protein interaction assay BCL-XL/Bad BH3 peptide (BCL-XL assay), TR-FRET; type: binding; conditions: His-BCL-XL / Bad BH3-derived peptide
T1 construct: BCL-XL (amino acids 1-212, C-terminal fused to a hexahistidine (6×His) tag); purchased BPS Bioscience (San Diego, Calif., USA); host or cells: E. coli
How it was run: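 TR-FRET competition of His-tagged human BCL-XL (1 nM final) with biotinylated Bad BH3 peptide, 11 compound concentrations 0.1 nM–20 μM, in Tris pH 7 buffer with NaCl, KF, DTT, BGG. 10 min pre-incubation, then 1 h at 22 °C plus overnight at 4 °C; 665/620 nm ratio normalized, IC50 from 4-parameter fit.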

SUDHL5 [1] = test: Induction of caspase-3/7 activity (Caspase-Glo 3/7), SUDHL5; type: cell-based; conditions: caspase-3/7 induction, SUDHL5 cells, 3 h treatment; median
How it was run: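 Apoptosis induction measured as caspase-3/7 activity (Caspase-Glo 3/7) in DLBCL lines after 3 h treatment at 37 °C; EC50 derived relative to the reference compound's maximal induction, with C0 fixed at 1.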

SUDHL10 [2] = test: Anti-proliferative effect (CellTiter-Glo, 72 h), SUDHL10; type: cell-based; conditions: SUDHL10 cells, antiproliferation, 72 h incubation, median, read-out: Antiproli SUDHL10 [M] (median)
How it was run: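 Luminescence from CellTiter-Glo, read 10 min after reagent addition, reports viable cell content after 72 h of compound treatment at 37 °C. A reference plate read at day 0 gives the starting baseline.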

SUDHL5 [3] = test: Induction of cytotoxicity (CellTiter-Glo, 5 h), SUDHL5; conditions: read-out: Cytotox SUDHL5 [M] (median); SUDHL5 cells, cytotoxicity induction, CellTiter-Glo, 5 h incubation, median
SUDHL10 [4] = test: Induction of cytotoxicity (CellTiter-Glo, 5 h), SUDHL10; conditions: read-out: Cytotox SUDHL10 [M] (median); SUDHL10 cells, cytotoxicity induction, CellTiter-Glo, 5 h incubation, median

T1 sequence (Q07817 1-212): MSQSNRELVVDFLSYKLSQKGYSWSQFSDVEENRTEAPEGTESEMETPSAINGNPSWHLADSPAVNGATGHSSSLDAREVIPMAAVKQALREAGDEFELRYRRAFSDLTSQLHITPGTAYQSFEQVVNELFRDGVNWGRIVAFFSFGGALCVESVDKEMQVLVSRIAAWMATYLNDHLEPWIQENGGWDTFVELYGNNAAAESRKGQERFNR

Compound	IC50 (BCL-XL) [µM]	EC50 (SUDHL5 [1]) [µM]	IC50 (SUDHL10 [2]) [M]	IC50 (SUDHL5 [3]) [M]	IC50 (SUDHL10 [4]) [M]
Cc1c2c(nn1CCN1CCOCC1)CN(C)CCCn1c(C(=O)O)c(CCCOc3cccc4ccccc34)c3cccc-2c31 (single isomer, unassigned; enantiomer 2) [Example 061, 7,11-dimethyl-10-[2-(morpholin-4-yl)ethyl]-1-[3-(naphthalen-1-yloxy)propyl]-4,5,6,7,8,10-hexahydropyrazolo[3′,4′:7,8][1,5]diazecino[9,10,1-hi]indole-2-carboxylic Acid (Enantiomer 2)]	> 20	21.9	8.37e-06	1.63e-05	1.75e-05
Cc1ccc2c(CCCOc3cccc4ccccc34)c(C(=O)O)n3c2c1-c1c(nn(C)c1C)CN(C)CCC3 (single isomer, unassigned; enantiomer 2) [Example 074, 7,10,11,12-tetramethyl-1-[3-(naphthalen-1-yloxy)propyl]-4,5,6,7,8,10-hexahydropyrazolo[3′,4′:7,8][1,5]diazecino[9,10,1-hi]indole-2-carboxylic Acid (Enantiomer 2)]	> 20	> 33	1.26e-05	1.2e-05	1.17e-05

Reference: US10981932B2, “Macrocyclic indole derivatives” (Bayer Aktiengesellschaft, priority 2016, dated 2021)
